US9290467B2, “Cyclic amides” (Hoffmann-La Roche Inc., priority 2012, dated 2016)

tested on: not given; assay: not given; conditions: from C=CCCN1CCC[C@H]1C(=O)N[C@@H](Cc1ccc(OCC=C)c(Cl)c1)C(=O)OC; rcm bond; 16-membered ring; Grubbs II (0.3 eq)/pTsOH (2 eq, in AcOH); DCM; 2.64 mM; 50.0 °C

Structure (SMILES)	ring closure, isolated yield
COC(=O)[C@@H]1Cc2ccc(c(Cl)c2)OC/C=C/CCN2CCCC2C(=O)N1 (stereo partly shown)	87%

same assay, conditions: from C=CCOc1ccc(C[C@H](NC(=O)c2cc(Br)ccc2OCC=C)C(=O)NC2(C#N)CC2)cc1Cl; rcm bond; 16-membered ring; Grubbs II (0.3 eq); DCM; 2.15 mM; 50.0 °C

Structure (SMILES)	ring closure, isolated yield
N#CC1(NC(=O)[C@@H]2Cc3ccc(c(Cl)c3)OCC=CCOc3ccc(Br)cc3C(=O)N2)CC1	53%

same assay, conditions: from C=CCOc1ccc(C[C@H](NC(=O)c2ccccc2OCC=C)C(=O)OC)cc1Cl; rcm bond; 16-membered ring; Grubbs II (0.3 eq); DCM; 2.76 mM; 50.0 °C

Structure (SMILES)	ring closure, isolated yield
COC(=O)[C@@H]1Cc2ccc(c(Cl)c2)OC/C=C/COc2ccccc2C(=O)N1	47%

target: Cathepsin L (Homo sapiens (Human), UniProt P07711); assay: Cathepsin enzyme inhibition assay (fluorogenic peptide substrate Z-Val-Val-Arg-AMC); format: biochemical; conditions: enzyme 1 nM, substrate 20 μM, pH 6.5
Description: Enzyme activity is measured by observing the increase in fluorescence intensity caused by cleavage of a peptide substrate containing a fluorophore whose emission is quenched in the intact peptide.
Assay buffer: 100 mM potassium phosphate pH 6.5, EDTA-Na 5 mM, Triton X-100 0.001%, DDT 5 mM.
Enzymes (all at 1 nM): human and mouse Cathepsin S, Cat K, Cat B, Cat L
Substrate (20 μM): Z-Val-Val-Arg-AMC, except for Cat K which uses Z-Leu-Arg-AMC (both from Bachem).
AMC=7-Amino-4-Methyl-Coumarin.
Excitation 360 nm, Emission 465 nm.
Enzyme is added to the substance dilutions in 96-well microtitre plates and the reaction is started with substrate. […] IC50 are calculated by standard methods. The results are expressed in μM in the following table.

Chain of Cathepsin L (P07711 114-333): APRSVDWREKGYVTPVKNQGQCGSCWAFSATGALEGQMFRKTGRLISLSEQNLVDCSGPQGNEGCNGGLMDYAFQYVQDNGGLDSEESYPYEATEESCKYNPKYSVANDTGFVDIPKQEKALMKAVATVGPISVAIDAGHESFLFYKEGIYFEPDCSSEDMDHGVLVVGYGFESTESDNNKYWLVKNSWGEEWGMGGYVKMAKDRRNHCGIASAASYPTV

Structure (SMILES)	IC50
N#CC1(NC(=O)[C@@H]2Cc3ccc(c(Cl)c3)OCCCCOc3cc4c(cc3C(=O)N2)CCCC4)CC1 [Example 29, (12S)-22-chloro-N-(1-cyanocyclopropyl)-14-oxo-2,3,4,5,11,12,13,14,16,17,18,19-dodecahydro-7,10-ethenonaphtho[2,3-b][1,12,5]dioxazacyclohexadecine-12-carboxamide]	13 nM
N#CC1(NC(=O)[C@@H]2Cc3ccc(c(I)c3)OCCCCOc3ccccc3C(=O)N2)CC1 [Example 30, (S)-19-Iodo-5-oxo-12,17-dioxa-4-aza-tricyclo[16.2.2.0*6,11*]docosa-1(21),6(11),7,9,18(22),19-hexaene-3-carboxylic acid (1-cyano-cyclopropyl)-amide]	181 nM
N#CC1(NC(=O)[C@@H]2Cc3ccc(c(I)c3)OCCCCOc3ccc(Cl)cc3C(=O)N2)CC1 [Example 31, (S)-8-Chloro-19-iodo-5-oxo-12,17-dioxa-4-aza-tricyclo[16.2.2.0*6,11*]docosa-1(21),6(11),7,9,18(22),19-hexaene-3-carboxylic acid (1-cyano-cyclopropyl)-amide]	12 nM
N#CC1(NC(=O)[C@@H]2Cc3ccc(c(Cl)c3)OC/C=C/COc3ccc(F)cc3C(=O)N2)CC1 [Example 32, (E)-(S)-19-Chloro-8-fluoro-5-oxo-12,17-dioxa-4-aza-tricyclo[16.2.2.0*6,11*]docosa-1(21),6,8,10,14,18(22),19-heptaene-3-carboxylic acid (1-cyano-cyclopropyl)-amide]	16 nM
N#CC1(NC(=O)[C@@H]2Cc3ccc(c(Cl)c3)OC/C=C/COc3cc(Cl)ccc3C(=O)N2)CC1 [Example 33, (E)-(S)-9,19-Dichloro-5-oxo-12,17-dioxa-4-aza-tricyclo[16.2.2.0*6,11*]docosa-1(21),6,8,10,14,18(22),19-heptaene-3-carboxylic acid (1-cyano-cyclopropyl)-amide]	73 nM
N#CC1(NC(=O)[C@@H]2Cc3ccc(c(Cl)c3)OC/C=C/COc3ccc(C(F)(F)F)cc3C(=O)N2)CC1 [Example 34, (E)-(S)-19-Chloro-5-oxo-8-trifluoromethyl-12,17-dioxa-4-aza-tricyclo[16.2.2.0*6,11*]docosa-1(21),6,8,10,14,18(22),19-heptaene-3-carboxylic acid (1-cyano-cyclopropyl)-amide]	9 nM
N#CC1(NC(=O)[C@@H]2Cc3ccc(c(Cl)c3)OCCCCOc3ccc(F)cc3C(=O)N2)CC1 [Example 35, (S)-19-Chloro-8-fluoro-5-oxo-12,17-dioxa-4-aza-tricyclo[16.2.2.0*6,11*]docosa-1(21),6,8,10,18(22),19-hexaene-3-carboxylic acid (1-cyano-cyclopropyl)-amide]	23 nM
N#CC1(NC(=O)[C@@H]2Cc3ccc(c(Cl)c3)OCCCCOc3cc(Cl)ccc3C(=O)N2)CC1 [Example 36, (S)-9,19-Dichloro-5-oxo-12,17-dioxa-4-aza-tricyclo[16.2.2.0*6,11*]docosa-1(21),6,8,10,18(22),19-hexaene-3-carboxylic acid (1-cyano-cyclopropyl)-amide]	50 nM
N#CC1(NC(=O)[C@@H]2Cc3ccc(c(Cl)c3)OCCCCOc3ccc(C(F)(F)F)cc3C(=O)N2)CC1 [Example 37, (S)-19-Chloro-5-oxo-8-trifluoromethyl-12,17-dioxa-4-aza-tricyclo[16.2.2.0*6,11*]docosa-1(21),6,8,10,18(22),19-hexaene-3-carboxylic acid (1-cyano-cyclopropyl)-amide]	9 nM
N#CC1(NC(=O)[C@@H]2Cc3ccc(c(Cl)c3)OC/C=C/CNc3ccc(Br)cc3C(=O)N2)CC1 [Example 38, (E)-(S)-8-Bromo-19-chloro-5-oxo-17-oxa-4,12-diaza-tricyclo[16.2.2.0*6,11*]docosa-1(21),6,8,10,14,18(22),19-heptaene-3-carboxylic acid (1-cyano-cyclopropyl)-amide]	10 nM
CC(C)(C)OC(=O)N1CC(c2ccc3c(c2)C(=O)N[C@H](C(=O)NC2(C#N)CC2)Cc2ccc(c(Cl)c2)OC/C=C/CO3)C1 [Example 39, 3-[(E)-(S)-19-Chloro-3-(1-cyano-cyclopropylcarbamoyl)-5-oxo-12,17-dioxa-4-aza-tricyclo[16.2.2.0*6,11*]docosa-1(21),6,8,10,14,18(22),19-heptaen-8-yl]-azetidine-1-carboxylic acid tert-butyl ester]	26.2 nM
N#CC1(NC(=O)[C@@H]2Cc3ccc(c(Cl)c3)OC/C=C/COc3ccc(C4CNC4)cc3C(=O)N2)CC1 [Example 41, (E)-(S)-8-Azetidin-3-yl-19-chloro-5-oxo-12,17-dioxa-4-aza-tricyclo[16.2.2.0*6,11*]docosa-1(21),6,8,10,14,18(22),19-heptaene-3-carboxylic acid (1-cyano-cyclopropyl)-amide]	5.2 nM
CC(C)(C)OC(=O)N1CC(c2ccc3c(c2)C(=O)N[C@H](C(=O)NC2(C#N)CC2)Cc2ccc(c(Cl)c2)OCCCCO3)C1 [Example 42, 3-[(S)-19-Chloro-3-(1-cyano-cyclopropylcarbamoyl)-5-oxo-12,17-dioxa-4-aza-tricyclo[16.2.2.0*6,11*]docosa-1(21),6,8,10,18(22),19-hexaen-8-yl]-azetidine-1-carboxylic acid tert-butyl ester]	25.5 nM
N#CC1(NC(=O)[C@@H]2Cc3ccc(c(Cl)c3)OCCCCOc3ccc(C4CNC4)cc3C(=O)N2)CC1 [Example 43, (S)-8-Azetidin-3-yl-19-chloro-5-oxo-12,17-dioxa-4-aza-tricyclo[16.2.2.0*6,11*]docosa-1(21),6,8,10,18(22),19-hexaene-3-carboxylic acid (1-cyano-cyclopropyl)-amide]	3.1 nM
N#CC1(NC(=O)[C@@H]2Cc3ccc(c(Cl)c3)OC/C=C/COc3c(F)cc(F)cc3C(=O)N2)CC1 [Example 44, (E-Z)—(S)-19-Chloro-8,10-difluoro-5-oxo-12,17-dioxa-4-aza-tricyclo[16.2.2.0*6,11*]docosa-1(21),6,8,10,14,18(22),19-heptaene-3-carboxylic acid (1-cyano-cyclopropyl)-amide]	9.2 nM
N#CC1(NC(=O)[C@@H]2Cc3ccc(c(Cl)c3)OC/C=C/COc3ccc(F)c(F)c3C(=O)N2)CC1 [Example 45, (E)-(S)-19-Chloro-7,8-difluoro-5-oxo-12,17-dioxa-4-aza-tricyclo[16.2.2.0*6,11*]docosa-1(21),6,8,10,14,18(22),19-heptaene-3-carboxylic acid (1-cyano-cyclopropyl)-amide]	4.3 nM
N#CC1(NC(=O)[C@@H]2Cc3ccc(c(Cl)c3)OC/C=C\COc3ccc(F)c(F)c3C(=O)N2)CC1 [Example 46, (Z)—(S)-19-Chloro-7,8-difluoro-5-oxo-12,17-dioxa-4-aza-tricyclo[16.2.2.0*6,11*]docosa-1(21),6,8,10,14,18(22),19-heptaene-3-carboxylic acid (1-cyano-cyclopropyl)-amide]	54 nM
CSc1ccc2c(c1)C(=O)N[C@H](C(=O)NC1(C#N)CC1)Cc1ccc(c(Cl)c1)OC/C=C/CO2 [Example 47, (E)-(S)-19-Chloro-8-methylsulfanyl-5-oxo-12,17-dioxa-4-aza-tricyclo[16.2.2.0*6,11*]docosa-1(21),6,8,10,14,18(22),19-heptaene-3-carboxylic acid (1-cyano-cyclopropyl)-amide]	1.6 nM
N#CC1(NC(=O)[C@@H]2Cc3ccc(c(Cl)c3)OC/C=C/COc3c(Cl)cc(F)cc3C(=O)N2)CC1 [Example 48, (E)-(S)-10,19-Dichloro-8-fluoro-5-oxo-12,17-dioxa-4-aza-tricyclo[16.2.2.0*6,11*]docosa-1(21),6,8,10,14,18(22),19-heptaene-3-carboxylic acid (1-cyano-cyclopropyl)-amide]	139 nM
N#Cc1ccc2c(c1)C(=O)N[C@H](C(=O)NC1(C#N)CC1)Cc1ccc(c(Cl)c1)OCCCCO2 [Example 49, (S)-19-Chloro-8-cyano-5-oxo-12,17-dioxa-4-aza-tricyclo[16.2.2.0*6,11*]docosa-1(21),6,8,10,18(22),19-hexaene-3-carboxylic acid (1-cyano-cyclopropyl)-amide]	18.3 nM
N#CC1(NC(=O)[C@@H]2Cc3ccc(c(Cl)c3)OCCCCOc3ccc(F)c(F)c3C(=O)N2)CC1 [Example 50, (S)-19-Chloro-7,8-difluoro-5-oxo-12,17-dioxa-4-aza-tricyclo[16.2.2.0*6,11*]docosa-1(21),6,8,10,18(22),19-hexaene-3-carboxylic acid (1-cyano-cyclopropyl)-amide]	13.5 nM
CSc1ccc2c(c1)C(=O)N[C@H](C(=O)NC1(C#N)CC1)Cc1ccc(c(Cl)c1)OCCCCO2 [Example 51, (S)-19-Chloro-8-methylsulfanyl-5-oxo-12,17-dioxa-4-aza-tricyclo[16.2.2.0*6,11*]docosa-1(21),6,8,10,18(22),19-hexaene-3-carboxylic acid (1-cyano-cyclopropyl)-amide]	1.6 nM
